Results from patent EP2465840A1, “Terpene ether” (CABB GmbH, priority 2010, dated 2012).
Entries after “also recorded” stand apart in the source; their conditions may differ.

Tests used:
Format in all cases: physicochemical
[1] = Appearance of cleaning formulation after 24 h
[2] = pH of cleaning formulation after addition of terpene ether
[3] = Foam height and foam stability of formulation; conditions: Reinigungsformulierung enthaltend Dinatriumlaurylsuccinat (wässrig); for h1: Schaumhöhe 5 Minuten nach dem Mischen; for h1 / h0: Lösung mit 0,5 % WAS; for h0: Schaumhöhe eine Minute nach dem Mischen; for Stabilität: Schaumstabilität (h1/h0)*100
Procedure: Die Schaumhöhe der Formulierungen wurde nach folgender Methode ermittelt: In einem 400 ml Becher wurden 100 g einer wässrigen Lösung mit 0,5 % WAS hergestellt. Für eine Minute wurde die Lösung bei […] runden […] wurde die […] Minute […]0) und 5 […]. Die Schaumstabilität in % ergibt sich dann über (h1/h0)*100.

[4] = Visual evaluation of foam (foam appearance, bubble size); parameters: key to Blasengröße nach 1 min. / Blasengröße nach 5 min.: klein (1); mittel (2); mittel-groß (3); groß (4); sehr groß (5); key to Aussehen des Schaums nach 1 min. / Aussehen des Schaums nach 5 min.: verschwindend (1); locker (2); mittelkompakt (3); sehr kompakt (4); conditions: Reinigungsformulierung enthaltend Dinatriumlaurylsuccinat (wässrig)
Procedure: Die Qualität des Schaums wurde visuell nach der folgenden Methode festgestellt: 100 g der Lösung mit 0,5 % WAS wurden in einen 250 ml Glaszylinder mit Schraubverschluss und einem Innendurchmesser von 35 mm überführt. Der Zylinder wurde 10 mal gedreht und die Blasengröße und die Schaumkompaktheit wurden nach einer Minute nach dem Mischen und nach 5 Minuten ermittelt. Dabei erfolgte die Beurteilung auf der Grundlage der folgenden beschreibenden Parameter:
Aussehen des Schaums: verschwindend (1), locker (2), mittelkompakt (3), sehr kompakt (4)
Blasengröße: klein (1), mittel (2), mittel-groß (3), groß (4), sehr groß (5) Tabelle 4: […]

[5] = Brookfield viscosity (25°C) of cleaning formulation 24 h after addition of terpene ether
Procedure: Im Rahmen der vorliegenden Erfindung wird die Brookfield-Viskosität einer wässrigen Zusammensetzung vorzugsweise mittels einem RTV Brookfield-Viskosimeter bei 25°C ermittelt, besonders bevorzugt mit einer Spindel # 3 oder # 4.
Die in Tabelle 1 angegebene Reinigungsformulierung wurde untersucht. Tabelle 1: Reinigungsformulierung (WAS 15 %)
Zu dieser Formulierung wurden NP 1 oder NP 27 gegeben. Die gemessenen Brookfield-Viskositätswerte nach 24 Stunden werden in Tabelle 2 und 3 zusammengefasst. Tabelle 2: Brookfield-Viskosität (25°C)
Zu dieser Formulierung wurden NP 1 oder NP 27 sowie danach Natriumchlorid gegeben. Die gemessenen Brookfield-Viskositätswerte nach 24 Stunden werden in den folgenden Tabellen zusammengefasst. Tabelle 13: Brookfield-Viskosität (25°C)

[6] = Reinigungsformulierung enthaltend Coco Glucosid, +0,5 %
[7] = Reinigungsformulierung enthaltend Coco Glucosid, +1 %
[8] = Reinigungsformulierung enthaltend Coco Glucosid, +5 %
[9] = Reinigungsformulierung enthaltend Dinatriumlaurylsuccinat (wässrig), +0,5 %
[10] = Reinigungsformulierung enthaltend Dinatriumlaurylsuccinat (wässrig), +1 %
[11] = Reinigungsformulierung enthaltend Dinatriumlaurylsuccinat (wässrig), +5 %
[12] = Reinigungsformulierung enthaltend Dinatriumlaurylsuccinat (wässrig), +0,5 %, nach 24 Stunden
[13] = Reinigungsformulierung enthaltend Dinatriumlaurylsuccinat (wässrig), +1 %, nach 24 Stunden
[14] = Reinigungsformulierung enthaltend Dinatriumlaurylsuccinat (wässrig), +5 %, nach 24 Stunden
[15] = Reinigungsformulierung enthaltend Natriumlaurylethersulfat, Dinatriumcocoamphodiacetat, 0,5 % NaCl, +0,5 %, nach 24 Stunden
[16] = Reinigungsformulierung enthaltend Natriumlaurylethersulfat, Dinatriumcocoamphodiacetat, 0,5 % NaCl, +0,25 %, nach 24 Stunden
[17] = Reinigungsformulierung enthaltend Natriumlaurylethersulfat, Dinatriumcocoamphodiacetat, 0,5 % NaCl, +1 %, nach 24 Stunden
[18] = Reinigungsformulierung enthaltend Natriumlaurylethersulfat, Dinatriumcocoamphodiacetat, 0,5 % NaCl, +2 %, nach 24 Stunden
[19] = Reinigungsformulierung enthaltend Natriumlaurylethersulfat, Dinatriumcocoamphodiacetat, 1 % NaCl, +0,5 %, nach 24 Stunden
[20] = Reinigungsformulierung enthaltend Natriumlaurylethersulfat, Dinatriumcocoamphodiacetat, 1 % NaCl, +0,25 %, nach 24 Stunden
[21] = Reinigungsformulierung enthaltend Natriumlaurylethersulfat, Dinatriumcocoamphodiacetat, 1 % NaCl, +1 %, nach 24 Stunden
[22] = Reinigungsformulierung enthaltend Natriumlaurylethersulfat, Dinatriumcocoamphodiacetat, 1 % NaCl, +2 %, nach 24 Stunden
[23] = Reinigungsformulierung enthaltend Natriumlaurylethersulfat, Dinatriumcocoamphodiacetat, +0,5 %, nach 24 Stunden
[24] = Reinigungsformulierung enthaltend Natriumlaurylethersulfat, Dinatriumcocoamphodiacetat, +0,25 %, nach 24 Stunden
[25] = Reinigungsformulierung enthaltend Natriumlaurylethersulfat, Dinatriumcocoamphodiacetat, +1 %, nach 24 Stunden
[26] = Reinigungsformulierung enthaltend Natriumlaurylethersulfat, Dinatriumcocoamphodiacetat, +2 %, nach 24 Stunden

CC1(C)C2CCC1(C)C(OCC1COC(=O)O1)C2 (stereo not drawn) [NP 27]
Aussehen nach 24 h [1, 6]: transparent Gel-flüssig | Aussehen nach 24 h [1, 7]: opaleszent Phasenseparation | Aussehen nach 24 h [1, 8]: weiß Phasenseparation | Aussehen nach 24 h [1, 9]: transparent; also recorded: flüssig | Aussehen nach 24 h [1, 10]: transparent and Gel | Aussehen nach 24 h [1, 11]: Weiß and Flüssig | Aussehen nach 24 h ([1]; Reinigungsformulierung enthaltend Natriumlaurylethersulfat, Dinatriumcocoamphodiacetat, 0,5 % NaCl, +0,5 %): transparent Gel | Aussehen nach 24 h ([1]; Reinigungsformulierung enthaltend Natriumlaurylethersulfat, Dinatriumcocoamphodiacetat, 0,5 % NaCl, +0,25 %): transparent Gel-flüssig | Aussehen nach 24 h ([1]; Reinigungsformulierung enthaltend Natriumlaurylethersulfat, Dinatriumcocoamphodiacetat, 0,5 % NaCl, +1 %): transparent Gel | Aussehen nach 24 h ([1]; Reinigungsformulierung enthaltend Natriumlaurylethersulfat, Dinatriumcocoamphodiacetat, 0,5 % NaCl, +2 %): opaleszent flüssig | Aussehen nach 24 h ([1]; Reinigungsformulierung enthaltend Natriumlaurylethersulfat, Dinatriumcocoamphodiacetat, 1 % NaCl, +0,5 %): transparent Gel | Aussehen nach 24 h ([1]; Reinigungsformulierung enthaltend Natriumlaurylethersulfat, Dinatriumcocoamphodiacetat, 1 % NaCl, +0,25 %): transparent Gel | Aussehen nach 24 h ([1]; Reinigungsformulierung enthaltend Natriumlaurylethersulfat, Dinatriumcocoamphodiacetat, 1 % NaCl, +1 %): transparent Gel | Aussehen nach 24 h ([1]; Reinigungsformulierung enthaltend Natriumlaurylethersulfat, Dinatriumcocoamphodiacetat, 1 % NaCl, +2 %): weiß flüssig | Aussehen nach 24 h ([1]; Reinigungsformulierung enthaltend Natriumlaurylethersulfat, Dinatriumcocoamphodiacetat, +0,5 %): transparent Gel-flüssig | Aussehen nach 24 h ([1]; Reinigungsformulierung enthaltend Natriumlaurylethersulfat, Dinatriumcocoamphodiacetat, +0,25 %): transparent flüssig | Aussehen nach 24 h ([1]; Reinigungsformulierung enthaltend Natriumlaurylethersulfat, Dinatriumcocoamphodiacetat, +1 %): transparent Gel | Aussehen nach 24 h ([1]; Reinigungsformulierung enthaltend Natriumlaurylethersulfat, Dinatriumcocoamphodiacetat, +2 %): opaleszent flüssig | pH [2, 6]: 6 | pH [2, 7]: 6 | pH [2, 8]: 6,1 | pH [2, 9]: 6,3 | pH [2, 10]: 6,35 | pH [2, 11]: 6,4 | h1 ([3]; 0,5 %): 210 mm | h0 ([3]; 0,5 %): 240 mm | Stabilität ([3]; 0,5 %): 88% | h1 ([3]; 1 %): 180 mm | h0 ([3]; 1 %): 215 mm | Stabilität ([3]; 1 %): 84% | h1 ([3]; 5 %): 175 mm | h0 ([3]; 5 %): 210 mm | Stabilität ([3]; 5 %): 83% | Aussehen des Schaums nach 1 min. ([4]; +0,5 %): 2 | Aussehen des Schaums nach 5 min. ([4]; +0,5 %): 1 | Blasengröße nach 1 min. ([4]; +0,5 %): 4 | Blasengröße nach 5 min. ([4]; +0,5 %): 5 | Aussehen des Schaums nach 1 min. ([4]; +1 %): 3 | Aussehen des Schaums nach 5 min. ([4]; +1 %): 1 | Blasengröße nach 1 min. ([4]; +1 %): 3 | Blasengröße nach 5 min. ([4]; +1 %): 5 | Aussehen des Schaums nach 1 min. ([4]; +5 %): 3 | Aussehen des Schaums nach 5 min. ([4]; +5 %): 1 | Blasengröße nach 1 min. ([4]; +5 %): 4 | Blasengröße nach 5 min. ([4]; +5 %): 5 | BF-Viskosität (2,5 rpm) [5, 6]: 16400 mPas | BF-Viskosität (5 rpm) [5, 6]: 15800 mPas | BF-Viskosität (2,5 rpm) [5, 7]: 1000 mPas | BF-Viskosität (5 rpm) [5, 7]: 900 mPas | BF-Viskosität (2,5 rpm) [5, 8]: 80 mPas | BF-Viskosität (5 rpm) [5, 8]: 60 mPas | BF-Viskosität (2,5 rpm) [5, 12]: 6800 mPas | BF-Viskosität (5 rpm) [5, 12]: 6800 mPas | BF-Viskosität (2,5 rpm) [5, 13]: 30400 mPas | BF-Viskosität (5 rpm) [5, 13]: 27800 mPas | BF-Viskosität (2,5 rpm) [5, 14]: 60 mPas | BF-Viskosität (5 rpm) [5, 14]: 40 mPas | BF-Viskosität (2,5 rpm) [5, 15]: 35200 mPas | BF-Viskosität (5 rpm) [5, 15]: 31000 mPas | BF-Viskosität (2,5 rpm) [5, 16]: 19600 mPas | BF-Viskosität (5 rpm) [5, 16]: 19000 mPas | BF-Viskosität (2,5 rpm) [5, 17]: 40800 mPas | BF-Viskosität (5 rpm) [5, 17]: 36800 mPas | BF-Viskosität (2,5 rpm) [5, 18]: 7400 mPas | BF-Viskosität (5 rpm) [5, 18]: 7200 mPas | BF-Viskosität (2,5 rpm) [5, 19]: 46400 mPas | BF-Viskosität (5 rpm) [5, 19]: 40400 mPas | BF-Viskosität (2,5 rpm) [5, 20]: 33200 mPas | BF-Viskosität (5 rpm) [5, 20]: 29000 mPas | BF-Viskosität (2,5 rpm) [5, 21]: 43200 mPas | BF-Viskosität (5 rpm) [5, 21]: 38800 mPas | BF-Viskosität (2,5 rpm) [5, 22]: 4000 mPas | BF-Viskosität (5 rpm) [5, 22]: 3800 mPas | BF-Viskosität (2,5 rpm) [5, 23]: 15600 mPas | BF-Viskosität (5 rpm) [5, 23]: 15000 mPas | BF-Viskosität (2,5 rpm) [5, 24]: 9200 mPas | BF-Viskosität (5 rpm) [5, 24]: 8700 mPas | BF-Viskosität (2,5 rpm) [5, 25]: 27600 mPas | BF-Viskosität (5 rpm) [5, 25]: 25600 mPas | BF-Viskosität (2,5 rpm) [5, 26]: 12800 mPas | BF-Viskosität (5 rpm) [5, 26]: 12400 mPas
